Test results reported in patent US20240360143A1, “[1,2,4]TRIAZOLO[4,3-A]PYRIMIDIN-7(8H)-ONE AS MITOCHONDRIAL PYRUVATE CARRIER INHIBITORS FOR USE IN THE TREATMENT OF CANCER” (MPC THERAPEUTICS SA, priority 2021, published 2024).

System: B16F10 tumors modified to express HER2
Test: Adoptive cell transfer of HER2-CAR T cells produced with compound, B16 melanoma expressing HER2
Assay type: in vivo, mouse
Method: For each retroviral preparation, 8×10^6 Phoenix ECO cells (ATCC, CRL-3214) were plated in a T150 tissue culture flask in RPMI medium supplemented with 10% FCS, 10 mM HEPES and 50 U/ml Penicillin-Streptomycin. On the next day, cells were transfected with 21 μg of the retroviral construct with Turbofect transfection reagent (Thermo Fischer Scientific), according to the manufacturer protocol. The medium was changed daily and collected at 48 h and 72 h post transfection. 48 h and 72 h virus supernatants were pooled and sedimented at 22′000 rcf for 2 h at 4° C. Finally, retrovirus pellets were resuspended in 2 ml of full RPMI medium and divided in 8 aliquots of 250 μl each, which were snap-frozen on dry ice and stored at −80° C.
Spleens from wild type CD45.1.2 mice were smashed on a 70 μm cell strainer. CD8 T cells were purified using the Easy SepTM Mouse CD8+ T Cell Isolation Kit (StemCell) according to the manufacturer protocol. 0.5×10^6 CD8 T cells were plated in 48 well plates in 0.5 ml of complete RPMI 1640 medium supplemented with 10% FCS, antibiotics and 50 IU/ml of recombinant human IL-2, and exposed to either DMSO or 20 μM Compound 45. Mouse T-cells were activated with Activator CD3/CD28 Dynabeads (Gibco) at a ratio of 2 beads per cell. Retroviral infection was conducted at 37° C. for 24 h. Untreated 48 well plates were coated for 24 h with 20 μg/ml of recombinant human fibronectin (Takara Clontech) at 4° C., followed by PBS 2% BSA for 30 min at RT and finally washed with PBS. One aliquot of concentrated retroviruses was plated in each fibronectin-coated 48 well plates and centrifuged for 90 min at 2′000 rcf and 32° C. Then, 0.5×10^6 of 24 h-activated CD8 T cells were added on top of the viruses and spun for 10 min at 400 rcf and 32° C. On day 3, the medium was replaced with 10 IU/ml recombinant human IL-2, 10 ng/ml recombinant human IL-7 and 10 ng/ml recombinant human IL-15, containing either DMSO or 20 μM Compound 45. Cells were then split every second day.
CD45.2 C57BL/6 mice were engrafted subcutaneously with 4×10^5 B16F10 tumors modified to express HER2. Six days later, mice were lymphodepleted with 100 mg/kg cyclophosphamide (Sigma Aldrich, C7397) injected i.p., and homogeneous groups were constituted with regard to tumor volume. T cells (5×10^6) were adoptively transferred i.v. on the next day. Tumor volumes were measured three times a week with a caliper and calculated using the formula: V=π×[d2×D]/6, where d is the minor tumor axis and D is the major tumor axis. Tumors were collected and separated from skin. Single cell suspensions were obtained with the Mouse Tumor Dissociation Kit (Miltenyi, 130-096-730) according to the manufacturer protocol. Spleen and draining lymph node were smashed on a 70 μm cell strainer. Single cell suspensions were stained with antibodies before flow cytometry analysis.
Polyclonal CD8 T cells from wild type mice were activated in the presence of DMSO or 20 μM Compound 45 and then retrovirally transduced with a HER2-CAR construct (FIG. 4A). […] No difference in percentages of memory precursor effector T cells could be detected (FIG. 4F) and TCF1-expressing T cells (FIG. 4G). […] More tumor-infiltrating Compound 45-treated CAR T cells expressed TCF1 (FIG. 5H). […] Finally, fewer Compound 45-treated CAR T cells were expressing the inhibitory molecules PD1 and TIM3, indicating a less exhausted phenotype (FIG. 5K).

**Q.** `O=c1cc(Cc2ccccc2)n2c(SCc3c(F)cccc3Cl)nnc2[nH]1` [Compound 45, 5-benzyl-3-[(2-chloro-6-fluorobenzyl)sulfanyl][1,2,4]triazolo[4,3-a]pyrimidin-7 (8H)-one] was tested. Which tumor growth (HER2CAR T cells produced with 20 μM compound, 5×10^6 cells i.v. (FIGS. 4B and 4C)) did it give?
**A.** Its tumor growth is “significantly suppress”.

**Q.** And the “number of CAR T cells in blood” value (blood 12 days after ACT (FIG. 4D))?
**A.** The value was “no difference”.

**Q.** What about the “percentage of HER2CAR T cells forming short-lived effector T cells” value (blood 12 days after ACT (FIG. 4E)) of the same compound?
**A.** Its value is “significantly reduced”.

**Q.** And the “percentages of memory precursor effector T cells” value (blood 12 days after ACT (FIG. 4F))?
**A.** The value was “No difference”.

**Q.** What about the “percentages of TCF1-expressing T cells” value (blood 12 days after ACT (FIG. 4G)) of the same compound?
**A.** Its value is “No difference”.

**Q.** And the “central memory T cell differentiation” value (draining lymph node (FIG. 5B))?
**A.** Its value is “Neither in the draining lymph node nor in the spleen could be observed a difference”.

**Q.** And the “HER2CAR T cells expressing TCF1” value (draining lymph node (FIG. 5C))?
**A.** The value was “Neither in the draining lymph node nor in the spleen could be observed a difference”.

**Q.** What about the “engraftment of HER2CAR T cells in the spleen” value (spleen (FIG. 5D)) of the same compound?
**A.** Its value is “increase was significant”.

**Q.** What about the “central memory T cell differentiation” value (spleen (FIG. 5E)) of the same compound?
**A.** Its value is “Neither in the draining lymph node nor in the spleen could be observed a difference”.

**Q.** What about the “HER2CAR T cells expressing TCF1” value (spleen (FIG. 5F)) of the same compound?
**A.** The value was “Neither in the draining lymph node nor in the spleen could be observed a difference”.

**Q.** And the “CAR T cells in tumors” value (tumor (FIG. 5G))?
**A.** The value was “significantly more”.

**Q.** And the “tumor-infiltrating CAR T cells expressing TCF1” value (tumor (FIG. 5H))?
**A.** Its value is “More”.

**Q.** And the “CAR T cells expressing the inhibitory molecules PD1 and TIM3” value (tumor (FIG. 5K))?
**A.** The value was “fewer”.

**Q.** And the “progenitor exhausted T cells (TCF1-positive)” value (tumor, co-expression of TCF1 with PD1 (FIG. 5I))?
**A.** Its value is “more”.

**Q.** And the “terminally differentiated exhausted T cells (TCF1-negative)” value (tumor, co-expression of TCF1 with PD1 (FIG. 5J))?
**A.** Its value is “less”.

**Q.** What about the “engraftment of HER2CAR T cells in the tumor-draining lymph nodes” value (tumor-draining lymph nodes (FIG. 5A)) of the same compound?
**A.** The value was “trend towards an increased engraftment”.
